# Data as given in patent US20090029966A1, “COMBINATION THERAPY WITH PARP INHIBITORS” (ABBOTT LABORATORIES, priority 2006, published 2009).
# Legend:
# [1] = system: MX-1 breast carcinoma xenograft; assay: MX-1 breast carcinoma xenograft, combination with cisplatin; format: in vivo, nude mice
# Protocol: In this study the efficacy of A-861695 in combination with cisplatin was evaluated in the MX-1 breast carcinoma xenograft model in nude mice. Tumors were size-matched to 100 mm^3 on day 16 and PARP inhibitor therapy (p.o., b.i.d. ×8) was initiated the same day. A single dose of cisplatin at 6.0 mg/kg/day was administered i.p. day 18. Data, shown in FIG. 5, are mean±S.E.M. of 9 mice per treatment group.
# [2] = system: MX-1 breast carcinoma xenograft; assay: MX-1 breast carcinoma xenograft, combination with carboplatin; format: in vivo, scid mice
# From the text: The MX-1 breast carcinoma xenograft model in scid mice was used to test the ability of A-861695 to potentiate the efficacy of platinum-based agents. This cell line was derived from a person with a poorly differentiated mammary carcinoma. MX-1 is sensitive to cytotoxic agents. Carboplatin, a second-generation platinum containing anticancer drug, is currently the standard of care for treating lung, ovarian, and head and neck cancers. MX-1 tumors are sensitive to carboplatin. […] Mice were randomized into treatment groups of 8-10 mice per group. […] A-861695 was administered at 25 mg/kg/day s.c., via 14-day osmotic minipumps (OMPs) starting on day 17. Carboplatin was given i.p., on day 20, 24 and 27.
# [3] = system: tumor; assay: Valproic acid and radiotherapy (FIG. 6); format: in vivo; conditions: single and combined administration of valproic acid and radiotherapy
# [4] = system: PC3M-Luc human prostate carcinoma; assay: Orthotopic PC3M-Luc human prostate carcinoma model (BLI); format: in vivo, male SCID-C.B17 mice; conditions: TMZ 50 mg/kg/day alone or with ABT-888 25 mg/kg/day
# Protocol: Bioluminescent PC-3M-luciferase-C6 osteolytic human prostate cancer cells, constitutively expressing luciferase (Caliper Life Sciences, Hopkinton, Mass.) were orthotopically injected into the prostates of ˜10-week-old male SCID-C.B17 mice (C.B-17/IcrCrl-scid-BR, Charles River Labs). Mice were housed in a facility with constant humidity, temperature and a 12-h light-dark cycle. Mice were anesthetized with intramuscular injections of ketamine (40 mg/kg) and rompum (5 mg/kg) before surgery. The surgical region was shaved and sterilized with iodine and alcohol swabs. A lower midline incision was made to access the prostate. The left lobe of the dorsal prostate was injected with 1×10^6 PC3M-Luc cells (975 photon/second/cell) in 30 μl (1:1 matrigel, Collaborative Biomedical Products, Bedford, Mass.). The peritoneal cavity was closed with 4-0 suture and skin incision was closed with clip.
# In vivo bioluminescent image (BLI) was performed with an IVISR Imaging System (Caliper Life Sciences, Hopkinton, Mass.). […] Images and measurements of bioluminescent signals were acquired and analyzed using Living Image® software (Caliper Life Sciences, Hopkinton, Mass.). Uniform region of interests (ROIs) were used across all groups and time points to achieve quantification of bioluminescent signal. […] The mice were then monitored with this system at weekly intervals. […]
# [5] = system: MDA-231-LN-luc cells
# [6] = system: DoHH-2 cells; assay: B-cell lymphoma (DoHH-2 cell) flank xenograft; conditions: for Mean Tumor Volume Day 27 mm^3 ± SE: ABT-888 25 mg/kg/day PO BID 7 days, Temozolomide 50 mg/kg/day PO QD 5 days, tumor size at start 503 mm^3; for % T/C Day 28 (dosing 11 days): treatment group/corresponding vehicle group x 100
# Protocol: Animals were size matched on day 15 to an approximate tumor volume of 503 mm^3.
# Group mouse weights were recorded three times a week to monitor for weight loss due to toxicity or excessive tumor burden.
# [7] = system: HCT-116 tumors; assay: HCT-116 tumors in nude mice, combination with radiotherapy; format: in vivo; conditions: 6.25, 12.5 or 25 mg/kg/day i.p. OMP 14 days + radiation 2 Gy/day x 10 doses; compared to radiotherapy or compound alone
# Protocol: This study was done in nude mice bearing HCT-116 tumors in the leg. Three days (−3) prior to the beginning of radiotherapy, mice were implanted i.p with OMPs delivering A-620223 at 0, 6.25, 12.5, or 25 mg/kg/day for 14 days. Starting day 0 mice received radiation treatment (2 Gy/day) for 10 doses alone or in combination with the 3 different doses of 2-(N-propylpiperidin-4-yl)benzimidazole-4-carboxamide.
# [8] = system: intra-cerebellar medulloblastoma xenographs; HSB T-cell ALL; JM1 pre-B ALL; P115 primary AML cells; assay: TMZ and ABT-888 combinations in medulloblastoma xenografts and leukemia cells (FIGS. 7-11); format: in vivo, mice; conditions: differing amounts of TMZ and ABT-888 combinations
# [9] = system: 9 L orthotopic gliosarcoma; assay: 9L orthotopic gliosarcoma, combination with TMZ; format: in vivo, Fisher 344 rats
# Protocol: Tumor growth was monitored longitudinally using contrast-enhanced magnetic resonance imaging (MRI). Animal survival was evaluated based on humane euthanasia of rats presenting signs of irreversible illness.
# [10] = system: B16F10 murine melanoma; assay: B16F10 murine melanoma, combination with TMZ; format: in vivo, C57BL/6 mice; conditions: A-861695 25, 12.5 or 3.1 mg/kg/day p.o. b.i.d. days 1-14 + TMZ 62.5 mg/kg/day p.o. q.d. x5
# Protocol: This study was done on mice with B 16F 10 murine melanoma. Mice were divided into six treatment groups with 8-10 mice per group. See figure two for treatment groups. B16F10 cells were injected s.c. into C57BL/6 mice on day 0. Dosing was initiated on day one. A-861695 was administered p.o., b.i.d. on days 1-14. On days 3-7 temozolomide (TMZ) was administered p.o., q.d. (for the groups receiving both TMZ and A-861695, TMZ was given two hours after the A-861695 was administered).
# [11] = TMZ 50 PO q.d x 5, ABT-888/TMZ 25/50 mg/kg/day po b.i.d./po q.d., normalized BLI post size match
smiles,measurement,setting,value
"N.N.[Cl][Pt][Cl] [cisplatin, reference compound]",cures (no measurable tumors at end of the trial),[1]; cisplatin monotherapy 6.0 mg/kg/day i.p. day 18,3/9
"N.N.O=C([O-])C1(C(=O)[O-])CCC1.[Pt+2] [carboplatin, reference compound]",tumor inhibition as a single agent (FIG. 4),"[2]; carboplatin 5, 10, 15 mg/kg/day i.p. day 20, 24, 27",dose-dependent tumor inhibition
CCCC(CCC)C(=O)O [valproic acid],effect on radiotherapy (FIG. 6),[3],can enhance the effects of radiotherapy
"Cn1nnc2c(C(N)=O)ncn2c1=O [TMZ, temozolomide]",efficacy after second treatment schedule (day 55),[4],no efficacy
same,Day 12 % Tumor change (BLI),[5]; [11],66 ± 76%
same,Day 30 % Tumor change (BLI),[5]; [11],1217 ± 560%
same,Weight loss (Observations),[5]; after last dose of 2nd cycle,>10% after last
same,Mortality,"[5]; three cycles of 5 days with 11 days of rest, n=11",0/11
same,Mean Tumor Volume Day 27 mm^3 ± SE,[6],2202 ± 253 mm^3
same,% T/C Day 28 (dosing 11 days),[6],94%
same,% TGI Day 28 (dosing 11 days),[6]; tumor growth inhibition vs vehicle,6%
CCCN1CCC(c2nc3cccc(C(N)=O)c3[nH]2)CC1 [2-(N-propylpiperidin-4-yl)benzimidazole-4-carboxamide],reduction of tumor size in combination with radiotherapy (FIG. 1),[7],significant improvement in the reduction of tumor size
"C[C@]1(c2nc3c(C(N)=O)cccc3[nH]2)CCCN1 [ABT-888, 2-[(2R)-2-methylpyrrolidin-2-yl]-1H-benzimidazole-4-carboxamide]",effect on toxicity of TMZ (FIGS. 7-11),[8],enhancement of toxicity of TMZ
same,tumor volume reduction better than TMZ alone,"[9]; A-861695 50 mg/kg/day + TMZ 17.5 mg/kg/day, day 14, p<0.005",44%
same,reduction of tumor volume (day 14),"[9]; A-861695 50 mg/kg/day p.o. b.i.d. in combination with TMZ 17.5 mg/kg/day p.o. q.d., MRI",63%
same,animal survival,"[9]; A-861695 18 or 50 mg/kg/day with TMZ, p<0.005 Log-rank test",significantly prolonged animal survival
same,potentiation of TMZ efficacy (FIG. 2),[10],significantly potentates the TMZ efficacy in a dose dependent manner
same,cures (no measurable tumors at end of the trial),[1]; A-861695 5 mg/kg/day p.o. b.i.d. x8 + cisplatin 6.0 mg/kg/day i.p. day 18,8/9
same,cures (no measurable tumors at end of the trial),[1]; A-861695 25 mg/kg/day p.o. b.i.d. x8 + cisplatin 6.0 mg/kg/day i.p. day 18,8/9
same,cures (no measurable tumors at end of the trial),[1]; A-861695 50 mg/kg/day p.o. b.i.d. x8 + cisplatin 6.0 mg/kg/day i.p. day 18,6/9
same,dose at which maximal potentiation of cisplatin was reached,"[1]; dose-response 5, 25, 50 mg/kg/day",5 mg/kg/day
same,bioavailability in brain tissue,compared to other PARP inhibitors,improved bioavailability in brain tissue
same,blood brain barrier,"rat, in vivo",crosses the blood brain barrier
same,Mean Tumor Volume Day 27 mm^3 ± SE,[6],2970 ± 410 mm^3
same,Observations,[6]; toxicity assessment in Scid female mice,None
same,% T/C Day 28 (dosing 11 days),[6],127 (—) %
same,"potentiation of carboplatin (tumor volumes, FIG. 4)",[2]; A-861695 25 mg/kg/day s.c. OMP 14 days + carboplatin 10 and 15 mg/kg/day,pronounced potentiation of carboplatin
